In PubChem BioAssay (NCI):
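48-hour exposure; five concentrations; linearly interpolated endpoints. GI50: concentration for 50% inhibition of growth. TGI marks complete inhibition of growth.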

How the values were obtained:
Experiment in all cases: DTP human tumour cell line panel, 48 h
UACC-62 melanoma = tested on: UACC-62 melanoma
CCRF-CEM leukemia = tested on: CCRF-CEM leukemia
MCF7 breast = tested on: MCF7 breast
MDA-MB-231 breast = tested on: MDA-MB-231 breast
NCI/ADR-RES ovarian = tested on: NCI/ADR-RES ovarian
SR leukemia = tested on: SR leukemia
BT-549 breast = tested on: BT-549 breast
MALME-3M melanoma = tested on: MALME-3M melanoma
SF-268 CNS = tested on: SF-268 CNS
HOP-92 NSCLC = tested on: HOP-92 NSCLC
RXF 393 renal = tested on: RXF 393 renal
MDA-MB-435 = tested on: MDA-MB-435
M14 melanoma = tested on: M14 melanoma
A498 renal = tested on: A498 renal
SK-MEL-5 melanoma = tested on: SK-MEL-5 melanoma
NCI-H23 lung = tested on: NCI-H23 lung
SNB-75 CNS = tested on: SNB-75 CNS
SW-620 colon = tested on: SW-620 colon
ACHN renal = tested on: ACHN renal
OVCAR-8 ovarian = tested on: OVCAR-8 ovarian
U251 CNS = tested on: U251 CNS
NCI-H226 lung = tested on: NCI-H226 lung
HOP-62 NSCLC = tested on: HOP-62 NSCLC
HCT-15 colon = tested on: HCT-15 colon
KM12 colon = tested on: KM12 colon
HCT-116 colon = tested on: HCT-116 colon
786-0 renal = tested on: 786-0 renal
DU-145 prostate = tested on: DU-145 prostate
HCC-2998 colon = tested on: HCC-2998 colon
UO-31 renal = tested on: UO-31 renal
OVCAR-5 ovarian = tested on: OVCAR-5 ovarian
NCI-H460 lung = tested on: NCI-H460 lung
SN12C renal = tested on: SN12C renal
EKVX NSCLC = tested on: EKVX NSCLC
UACC-257 melanoma = tested on: UACC-257 melanoma
SNB-19 CNS = tested on: SNB-19 CNS
LOX IMVI melanoma = tested on: LOX IMVI melanoma
TK-10 renal = tested on: TK-10 renal
IGROV1 ovarian = tested on: IGROV1 ovarian
SK-MEL-2 melanoma = tested on: SK-MEL-2 melanoma
K-562 leukemia = tested on: K-562 leukemia
CAKI-1 renal = tested on: CAKI-1 renal
HL-60(TB) leukemia = tested on: HL-60(TB) leukemia
RPMI-8226 leukemia = tested on: RPMI-8226 leukemia
OVCAR-3 ovarian = tested on: OVCAR-3 ovarian
HS 578T breast = tested on: HS 578T breast
A549 NSCLC = tested on: A549 NSCLC
SF-539 CNS = tested on: SF-539 CNS
OVCAR-4 ovarian = tested on: OVCAR-4 ovarian
COLO 205 colon = tested on: COLO 205 colon
PC-3 prostate = tested on: PC-3 prostate
SK-OV-3 ovarian = tested on: SK-OV-3 ovarian
T-47D breast = tested on: T-47D breast
SK-MEL-28 melanoma = tested on: SK-MEL-28 melanoma
NCI-H522 lung = tested on: NCI-H522 lung
MOLT-4 leukemia = tested on: MOLT-4 leukemia
HT29 colon = tested on: HT29 colon
SF-295 CNS = tested on: SF-295 CNS
MDA-N = tested on: MDA-N

## COc1cccc(CCC(=O)c2cc3c(N)c(C(=O)Nc4cccc(Cl)c4C)sc3nc2C)c1
UACC-62 melanoma
  GI50: 0.407 µM
  TGI: > 100 µM
CCRF-CEM leukemia
  GI50: 0.437 µM
  TGI: > 100 µM
MCF7 breast
  GI50: 0.336 µM
  TGI: > 100 µM
MDA-MB-231 breast
  GI50: 1.4 µM
  TGI: > 78.6 µM
NCI/ADR-RES ovarian
  GI50: 0.388 µM
  TGI: 10.4 µM
SR leukemia
  GI50: 0.431 µM
  TGI: > 100 µM
BT-549 breast
  GI50: 0.951 µM
  TGI: 99.6 µM
MALME-3M melanoma
  GI50: 0.469 µM
  TGI: > 100 µM
SF-268 CNS
  GI50: 0.814 µM
  TGI: > 100 µM
HOP-92 NSCLC
  GI50: 0.753 µM
  TGI: > 100 µM
RXF 393 renal
  GI50: 0.393 µM
  TGI: 2.95 µM
MDA-MB-435
  GI50: 0.197 µM
  TGI: 0.612 µM
M14 melanoma
  GI50: 0.446 µM
  TGI: > 100 µM
A498 renal
  GI50: 0.248 µM
  TGI: 2.47 µM
SK-MEL-5 melanoma
  GI50: 0.65 µM
  TGI: 11 µM
NCI-H23 lung
  GI50: 2.35 µM
  TGI: > 100 µM
SNB-75 CNS
  GI50: 0.193 µM
  TGI: 1.54 µM
SW-620 colon
  GI50: 0.469 µM
  TGI: > 100 µM
ACHN renal
  GI50: 0.743 µM
  TGI: > 100 µM
OVCAR-8 ovarian
  GI50: 1.44 µM
  TGI: > 100 µM
U251 CNS
  GI50: 0.445 µM
  TGI: > 100 µM
NCI-H226 lung
  GI50: 1.45 µM
  TGI: 32.7 µM
HOP-62 NSCLC
  GI50: 1.1 µM
  TGI: > 100 µM
HCT-15 colon
  GI50: 0.433 µM
  TGI: > 100 µM
KM12 colon
  GI50: 0.502 µM
  TGI: > 100 µM
HCT-116 colon
  GI50: 0.448 µM
  TGI: > 100 µM
786-0 renal
  GI50: 0.53 µM
  TGI: > 100 µM
DU-145 prostate
  GI50: 1.91 µM
  TGI: > 100 µM
HCC-2998 colon
  GI50: 2.18 µM
  TGI: > 50.8 µM
UO-31 renal
  GI50: 0.86 µM
  TGI: > 100 µM
OVCAR-5 ovarian
  GI50: 2.68 µM
  TGI: > 100 µM
NCI-H460 lung
  GI50: 0.376 µM
  TGI: > 75.2 µM
SN12C renal
  GI50: 0.667 µM
  TGI: > 100 µM
EKVX NSCLC
  GI50: 0.998 µM
  TGI: > 100 µM
UACC-257 melanoma
  GI50: 4.25 µM
  TGI: > 100 µM
SNB-19 CNS
  GI50: 0.523 µM
  TGI: > 100 µM
LOX IMVI melanoma
  GI50: 0.664 µM
  TGI: > 100 µM
TK-10 renal
  GI50: 6.46 µM
  TGI: > 100 µM
IGROV1 ovarian
  GI50: 0.628 µM
  TGI: > 100 µM
SK-MEL-2 melanoma
  GI50: 1.36 µM
  TGI: > 100 µM
K-562 leukemia
  GI50: 0.396 µM
  TGI: > 100 µM
CAKI-1 renal
  GI50: 0.535 µM
  TGI: > 100 µM
HL-60(TB) leukemia
  GI50: 0.543 µM
  TGI: > 100 µM
RPMI-8226 leukemia
  GI50: 0.819 µM
  TGI: > 100 µM
OVCAR-3 ovarian
  GI50: 0.37 µM
  TGI: 2.78 µM
HS 578T breast
  GI50: 0.343 µM
A549 NSCLC
  GI50: 0.687 µM
  TGI: > 100 µM
SF-539 CNS
  GI50: 0.408 µM
  TGI: 2.78 µM
OVCAR-4 ovarian
  GI50: 1.56 µM
  TGI: > 100 µM
COLO 205 colon
  GI50: 0.661 µM
  TGI: > 45.9 µM
PC-3 prostate
  GI50: 0.746 µM
  TGI: > 100 µM
SK-OV-3 ovarian
  GI50: 1.53 µM
  TGI: > 75.6 µM
T-47D breast
  GI50: 0.588 µM
  TGI: > 100 µM
SK-MEL-28 melanoma
  GI50: 0.981 µM
  TGI: > 100 µM
NCI-H522 lung
  GI50: 0.368 µM
MOLT-4 leukemia
  GI50: 0.77 µM
  TGI: > 100 µM
HT29 colon
  GI50: 0.338 µM
SF-295 CNS
  GI50: 0.407 µM
  TGI: 20.1 µM

## CC(=O)OCC12CCC3C4(C)CCCC(C)(C)C4CCC3(C)C1CC(C1=CC(=O)OC1O)O2 (stereo not drawn)
UACC-62 melanoma
  TGI: 4.82 µM
CCRF-CEM leukemia
  TGI: > 10 µM
MCF7 breast
  TGI: > 10 µM
MDA-MB-231 breast
  TGI: 4.44 µM
SR leukemia
  TGI: 0.846 µM
MALME-3M melanoma
  TGI: 2.44 µM
RXF 393 renal
  TGI: 3.82 µM
M14 melanoma
  TGI: 2.96 µM
SK-MEL-5 melanoma
  TGI: 3.44 µM
NCI-H23 lung
  TGI: 3.86 µM
SNB-75 CNS
  TGI: 3.32 µM
SW-620 colon
  TGI: 6.47 µM
OVCAR-8 ovarian
  TGI: 3.91 µM
HOP-62 NSCLC
  TGI: 6.45 µM
HCT-15 colon
  TGI: 2.5 µM
KM12 colon
  TGI: 3.54 µM
786-0 renal
  TGI: 2.28 µM
DU-145 prostate
  TGI: 6.64 µM
HCC-2998 colon
  TGI: 3.67 µM
SN12C renal
  TGI: 3.09 µM
EKVX NSCLC
  TGI: 5.92 µM
UACC-257 melanoma
  TGI: 3.63 µM
LOX IMVI melanoma
  TGI: 2.54 µM
TK-10 renal
  TGI: 3.31 µM
IGROV1 ovarian
  TGI: 3.6 µM
K-562 leukemia
  TGI: 4.72 µM
CAKI-1 renal
  TGI: 2.81 µM
HL-60(TB) leukemia
  TGI: 2.76 µM
RPMI-8226 leukemia
  TGI: > 10 µM
A549 NSCLC
  TGI: > 10 µM
COLO 205 colon
  TGI: 4.18 µM
PC-3 prostate
  TGI: 2.63 µM
MDA-N
  TGI: 2.89 µM
SK-OV-3 ovarian
  TGI: 6.32 µM
T-47D breast
  TGI: > 10 µM
SK-MEL-28 melanoma
  TGI: 3.44 µM
MOLT-4 leukemia
  TGI: 0.797 µM
HT29 colon
  TGI: 3.58 µM
SF-295 CNS
  TGI: 5.56 µM

## CCc1ccc2nccc(NCCCN(C)C)c2c1[N+](=O)[O-]
UACC-62 melanoma
  TGI: > 100 µM
CCRF-CEM leukemia
  TGI: > 100 µM
MCF7 breast
  TGI: > 100 µM
MDA-MB-231 breast
  TGI: > 100 µM
NCI/ADR-RES ovarian
  TGI: > 100 µM
SR leukemia
  TGI: > 100 µM
MALME-3M melanoma
  TGI: > 100 µM
SF-268 CNS
  TGI: > 100 µM
HOP-92 NSCLC
  TGI: > 100 µM
RXF 393 renal
  TGI: > 100 µM
MDA-MB-435
  TGI: > 100 µM
M14 melanoma
  TGI: 67.4 µM
A498 renal
  TGI: > 100 µM
SK-MEL-5 melanoma
  TGI: > 100 µM
NCI-H23 lung
  TGI: > 100 µM
SNB-75 CNS
  TGI: > 100 µM
SW-620 colon
  TGI: > 100 µM
ACHN renal
  TGI: > 100 µM
OVCAR-8 ovarian
  TGI: > 100 µM
U251 CNS
  TGI: > 100 µM
NCI-H226 lung
  TGI: > 100 µM
HOP-62 NSCLC
  TGI: > 100 µM
KM12 colon
  TGI: > 100 µM
HCT-116 colon
  TGI: > 100 µM
786-0 renal
  TGI: > 100 µM
DU-145 prostate
  TGI: > 100 µM
HCC-2998 colon
  TGI: > 100 µM
UO-31 renal
  TGI: > 100 µM
OVCAR-5 ovarian
  TGI: 90.8 µM
NCI-H460 lung
  TGI: > 100 µM
SN12C renal
  TGI: > 100 µM
EKVX NSCLC
  TGI: > 100 µM
UACC-257 melanoma
  TGI: 81.3 µM
SNB-19 CNS
  TGI: > 100 µM
LOX IMVI melanoma
  TGI: > 100 µM
TK-10 renal
  TGI: > 100 µM
IGROV1 ovarian
  TGI: > 100 µM
SK-MEL-2 melanoma
  TGI: > 100 µM
K-562 leukemia
  TGI: > 100 µM
CAKI-1 renal
  TGI: > 100 µM
HL-60(TB) leukemia
  TGI: > 100 µM
RPMI-8226 leukemia
  TGI: > 100 µM
OVCAR-3 ovarian
  TGI: > 100 µM
HS 578T breast
  TGI: > 100 µM
A549 NSCLC
  TGI: > 100 µM
OVCAR-4 ovarian
  TGI: > 100 µM
COLO 205 colon
  TGI: 94.1 µM
PC-3 prostate
  TGI: > 100 µM
MDA-N
  TGI: > 100 µM
SK-OV-3 ovarian
  TGI: > 100 µM
T-47D breast
  TGI: > 100 µM
SK-MEL-28 melanoma
  TGI: > 100 µM
NCI-H522 lung
  TGI: > 100 µM
MOLT-4 leukemia
  TGI: > 100 µM
HT29 colon
  TGI: > 100 µM
SF-295 CNS
  TGI: > 100 µM
